COc1cc([N+](=O)[O-])ccc1N
solubility (mole fraction)
Settings	278.15 K	283.15 K	288.15 K	293.15 K	298.15 K	303.15 K	308.15 K	313.15 K	318.15 K	323.15 K
in 1,4-dioxane	–	–	0.0402	0.0468	0.0556	0.0652	0.0775	0.0925	0.111	0.133
in DMSO	–	–	–	0.235	0.249	0.264	0.281	0.3	0.321	0.344
in NMP	0.256	0.272	0.287	0.303	0.321	0.339	0.359	0.38	0.402	0.426
in acetonitrile	0.0118	0.0141	0.0175	0.0213	0.0269	0.0345	0.0433	0.0547	0.0683	0.0872
in ethanol	0.00263	0.00307	0.00363	0.00438	0.00534	0.00636	0.0078	0.00978	0.0121	0.015
in ethyl acetate	0.0186	0.0227	0.0269	0.0326	0.0398	0.0486	0.0596	0.0716	0.0854	0.103
in ethylene glycol	0.0017	0.00201	0.00243	0.00284	0.00345	0.00424	0.00527	0.00643	0.00796	0.00973
in methanol	0.00238	0.0028	0.00333	0.00392	0.00466	0.00565	0.00682	0.00844	0.0104	0.0129
in n-butanol	0.00135	0.00166	0.00202	0.00248	0.00304	0.00371	0.00457	0.0057	0.0072	0.00886
in n-propanol	0.00199	0.00239	0.0029	0.0035	0.00423	0.00512	0.00616	0.00738	0.00876	0.0104
in water	4e-06	6e-06	7e-06	9e-06	1.3e-05	1.7e-05	2.4e-05	3.2e-05	4.2e-05	5.5e-05

Reference: BigSolDB 2.1
